Laboratory results as given in ChEMBL document CHEMBL1139113, “Inhibition of the mitochondrial F1F0-ATPase by ligands of the peripheral benzodiazepine receptor” (Bioorg Med Chem Lett, 2007).

Columns and labels:
Jurkat [1] = experiment: Induction of cell death in Jurkat cells after 24 hrs; format: functional, cell-based; details: Homo sapiens
Ramos [2] = experiment: Induction of reactive oxygen species response in Ramos cells after 1 hr; format: functional, cell-based; details: Homo sapiens
[3] = Inhibition of F1F0-ATPase synthesis activity in bovine submitochondrial particles; parameters: species or system Bos taurus
Jurkat [4] = experiment: Induction of reactive oxygen species response in Jurkat cells after 1 hr; format: functional, cell-based; details: Homo sapiens
Ramos [5] = experiment: Induction of cell death in Ramos cells after 24 hrs; format: functional, cell-based; details: Homo sapiens
[6] = Inhibition of F1F0-ATPase hydrolysis activity in bovine submitochondrial particles; parameters: species or system Bos taurus
Jurkat [7] = experiment: Induction of cell death in Jurkat cells at 75 uM in presence of Mn(III)tetrakis(4-benzoic acid)porphyrin after 24 hrs; format: functional, Homo sapiens
Jurkat [8] = experiment: Induction of reactive oxygen species response in Jurkat cells at 75 uM after 1 hr; format: functional, Homo sapiens
Jurkat [9] = experiment: Induction of cell death in Jurkat cells at 75 uM after 24 hrs; format: functional, Homo sapiens
Jurkat [10] = experiment: Induction of reactive oxygen species response in Jurkat cells at 75 uM in presence of Mn(III)tetrakis(4-benzoic acid)porphyrin after 1 hr; format: functional, Homo sapiens
Jurkat [11] = experiment: Induction of cell death in Jurkat cells at 75 uM in presence of Vitamin E after 24 hrs; format: functional, Homo sapiens
Jurkat [12] = experiment: Induction of reactive oxygen species response in Jurkat cells at 75 uM in presence of Vitamin E after 1 hr; format: functional, Homo sapiens

**Q.** Which EC50 (Jurkat [1]) does the source give for `O=C1CN=C(c2ccccc2Cl)c2cc([N+](=O)[O-])ccc2N1` [CLONAZEPAM] here?
**A.** The EC50 was over 300 µM.

**Q.** What about the EC50 (Ramos [2]) of the same molecule?
**A.** The EC50 was over 300 µM.

**Q.** What about the EC50 [3] of the same molecule?
**A.** The EC50 was 120 µM.

**Q.** What about the EC50 (Jurkat [4]) of the same molecule?
**A.** The EC50 was over 300 µM.

**Q.** And the EC50 (Ramos [5])?
**A.** Its EC50 is over 300 µM.

**Q.** What about the EC50 [6] of the same molecule?
**A.** Its EC50 is 240 µM.

**Q.** Which EC50 (Jurkat [1]) does the source give for `CN1C(=O)CN=C(c2ccccc2)c2cc(Cl)ccc21` [DIAZEPAM] here?
**A.** The EC50 was 170 µM.

**Q.** What about the EC50 (Ramos [2]) of the same molecule?
**A.** The EC50 was 170 µM.

**Q.** What about the EC50 [3] of the same molecule?
**A.** The EC50 was 210 µM.

**Q.** And the EC50 (Jurkat [4])?
**A.** The EC50 was 200 µM.

**Q.** What about the EC50 (Ramos [5]) of the same molecule?
**A.** The EC50 was 250 µM.

**Q.** What about the EC50 [6] of the same molecule?
**A.** The EC50 was over 300 µM.

**Q.** For `CCC(C)N(C)C(=O)c1cc2ccccc2c(-c2ccccc2Cl)n1` (stereo unspecified) [PK-11195], which EC50 (Jurkat [1]) is on record?
**A.** The EC50 was 75 µM.

**Q.** What about the EC50 (Ramos [2]) of the same molecule?
**A.** Its EC50 is 100 µM.

**Q.** What about the EC50 [3] of the same molecule?
**A.** The EC50 was 33 µM.

**Q.** And the EC50 (Jurkat [4])?
**A.** The EC50 was 56 µM.

**Q.** And the Activity (Jurkat [7])?
**A.** Its Activity is 68.9%.

**Q.** And the Activity (Jurkat [8])?
**A.** Its Activity is 67.9%.

**Q.** And the Activity (Jurkat [9])?
**A.** The Activity was 85.5%.

**Q.** And the Activity (Jurkat [10])?
**A.** Its Activity is 39.7%.

**Q.** And the EC50 (Ramos [5])?
**A.** Its EC50 is 90 µM.

**Q.** And the Activity (Jurkat [11])?
**A.** The Activity was 55.9%.

**Q.** What about the Activity (Jurkat [12]) of the same molecule?
**A.** Its Activity is 33.9%.

**Q.** And the EC50 [6]?
**A.** Its EC50 is 230 µM.

**Q.** For `CN1C(=O)CN=C(c2ccc(Cl)cc2)c2cc(Cl)ccc21` [RO-54864], which EC50 (Jurkat [1]) is on record?
**A.** The EC50 was over 300 µM.

**Q.** What about the EC50 (Ramos [2]) of the same molecule?
**A.** The EC50 was 180 µM.

**Q.** And the EC50 [3]?
**A.** Its EC50 is 210 µM.

**Q.** And the EC50 (Jurkat [4])?
**A.** The EC50 was 230 µM.

**Q.** What about the EC50 (Ramos [5]) of the same molecule?
**A.** Its EC50 is 130 µM.

**Q.** And the EC50 [6]?
**A.** The EC50 was over 300 µM.

**Q.** Which EC50 (Jurkat [1]) does the source give for `CN1C(=O)C(Cc2ccc3ccccc3c2)N=C(c2ccc(O)cc2)c2cc(Cl)ccc21` (stereo unspecified) here?
**A.** Its EC50 is 6 µM.

**Q.** What about the EC50 (Ramos [2]) of the same molecule?
**A.** Its EC50 is 7.3 µM.

**Q.** What about the EC50 [3] of the same molecule?
**A.** The EC50 was 5.5 µM.

**Q.** What about the EC50 (Jurkat [4]) of the same molecule?
**A.** Its EC50 is 10 µM.

**Q.** And the EC50 (Ramos [5])?
**A.** Its EC50 is 6.3 µM.

**Q.** What about the EC50 [6] of the same molecule?
**A.** Its EC50 is 8.9 µM.
